Assay results as given in patent US20070161578A1, “Treatment of nonalcoholic fatty liver disease using cholesterol lowering agents and/or H3 receptor antagonist/inverse agonist” (priority 2005, published 2007).

Tests used:
[1] = tested on: DIO mice; experiment: DIO C57BL/6J mice on high fat/cholesterol diet, 4 weeks ezetimibe in diet (Example 3); assay type: in vivo; parameters: liver to body weight ratio (FIG. 6), top dose group: dose or concentration left out as unconfirmed
From the text: C57BL/6J mice were fed a high fat/cholesterol diet (Research Diets, with 45% Kcal fat and 0.12% w/w cholesterol) for 7 months after weaning.

[2] = tested on: Diet-induced obese (DIO) mice; experiment: Diet-induced obese (DIO) mice with hepatic steatosis, four weeks treatment (first example); assay type: in vivo; conditions: ezetimibe 5 mg/kg/day, formula XIIIA 12 mg/kg/day, or both
Description: The mice were sacrificed and the liver weight, liver triglyceride level and liver free cholesterol content were determined for each group were determined and summarized in FIGS. 1 to 4.

[3] = tested on: Niemann-Pick type C mice; conditions: ezetimibe treatment; cited from earlier work
[4] = tested on: Diet induced obese (DIO) mice; experiment: DIO mice with hepatic steatosis and fibrosis, plasma ALT after four weeks treatment (Example 2); assay type: in vivo; conditions: formula XIIID 9 mg/kg/day, alone or with ezetimibe 2 mg/kg/day
Description: Diet induced obese (DIO) mice, which had developed obesity, dyslipidemia, hepatic steatosis and fibrosis by feeding them a western diet containing 45% fat and 0.12% cholesterol for seven months, were divided into four groups and treated with nothing (control), ezetimibe (formula II) (2 mg/kg/day), the compound of formula XIIID (9 mg/kg/day) or a combination of ezetimibe (2 mg/kg/day) and compound of formula XIIID (9 mg/kg/day) for four weeks. The mice were sacrificed and the plasma alanine aminotransferase (ALT) enzyme activities, a plasma biomarker of liver injury with steatohepatitis, were determined for each group, this is summarized in FIG. 5.

[5] = after 4 weeks of ezetimibe treatment
[6] = after 4 weeks, ezetimibe-treated DIO mice compared to the control
[7] = after 4 weeks, livers from ezetimibe-treated mice
[8] = ezetimibe 1.6 and 5.3 mg/kg/day, compared to the control group

**Q.** What does the source list for `O=C1[C@H](CC[C@H](O)c2ccc(F)cc2)[C@@H](c2ccc(O)cc2)N1c1ccc(F)cc1` [ezetimibe]?
**A.** HDL-C [1, 5]: not changed; LDL-C [1, 5]: significant decreases; VLDL-C [1, 5]: significant decreases; reduction of plasma triglyceride [1, 5]: 15%; reduction of total plasma cholesterol [1, 5]: 30%; liver to body weight ratio [1, 6]: significantly reduced; liver wet weight [1, 6]: significantly reduced; liver cholesteryl esters [1, 7]: significantly lower; liver free cholesterol [1, 7]: significantly lower; liver triglyceride [1, 7]: significantly lower; liver triglyceride levels (FIG. 7), across doses ([1]; all groups that received ezetimibe, 4 weeks): dose-dependent decrease in liver triglyceride levels; liver to body weight ratio (FIG. 6), across doses ([1]; ezetimibe 0.5, 1.6 and 5.3 mg/kg/day, 4 weeks): dose-dependent decrease in liver to body weight ratio; liver cholesterol content (FIG. 9) [1, 8]: significant decrease in liver cholesterol content; liver cholesteryl ester content (FIG. 8) [1, 8]: significant decrease in liver cholesteryl ester content; liver to body weight ratio (FIG. 6), top dose group ([1]; ezetimibe, 4 weeks): greatest decline in liver to body weight ratio; VLDL-TG production rates ([1]; ezetimibe-treated vs control DIO mice): comparable; effect in treating NAFLD (conclusion from FIGS. 1 to 4) [2]: effective in treating NAFLD; liver cholesteryl ester content (FIG. 3) ([2]; vs control): decrease in liver cholesteryl ester content; liver free cholesterol content (FIG. 4) ([2]; vs control): decrease in liver cholesterol content; liver triglyceride levels (FIG. 2) ([2]; vs control): decrease in liver triglyceride levels; liver weight (liver to body weight ratio, FIG. 1) ([2]; vs control): decrease in liver weight; hepatic cholesterol accumulation [3]: reduced hepatic cholesterol accumulation; histological abnormalities [3]: improved histological abnormalities; liver enzymes [3]: improved

**Q.** For `CO/N=C(/c1ccccn1)C1CCN(C(=O)C2(F)CCN(Cc3ccnc(N)c3)CC2)CC1` [formula XIIID], which “plasma alanine aminotransferase (ALT) enzyme activities (FIG. 5)” value [4] is on record?
**A.** Its value is “decrease in plasma ALT”.
